Test results reported in patent US6933272B1 (priority 1998, dated 2005).
“Also recorded” adds a separate entry of the source. Where two headings read alike, the source gives them in different places.

Assays:
insulin receptor [1] = biological target: T1, insulin receptor (Homo sapiens, UniProt P06213); test: 125I insulin binding to human placental plasma membranes (HPPM); parameters: Human Placental Plasma Membranes—50 mM Hepes, pH 7.8 @ 4 C containing 100 U/mL Bacitracin; from tissue; host or cells: human placenta, plasma membranes; conditions: human placental plasma membranes, 16 h at 4° C.
Description: (§1) Tubes were mixed and incubated for 16 h at 4° C. After the incubation, the tubes were placed on ice and 300 μL of a 1:5 suspension of 0.4% bovine-γ-globulin in 20% polyethyleneglycol 6000 (BDH chemicals) was added to each tube, mixed thoroughly and left to incubate for 30 min on ice. The tubes were then centrifuged (3,000 g) for 30 min at 4° C., the supernatant was aspirated off and the pellet counted for radioactivity. […] Inhibition constants were estimated by graphical analysis of displacement plots or calculated using the curve fitting programs EBDA and/or LIGAND.
Target sequence in this assay (P06213 28-758 limits assumed): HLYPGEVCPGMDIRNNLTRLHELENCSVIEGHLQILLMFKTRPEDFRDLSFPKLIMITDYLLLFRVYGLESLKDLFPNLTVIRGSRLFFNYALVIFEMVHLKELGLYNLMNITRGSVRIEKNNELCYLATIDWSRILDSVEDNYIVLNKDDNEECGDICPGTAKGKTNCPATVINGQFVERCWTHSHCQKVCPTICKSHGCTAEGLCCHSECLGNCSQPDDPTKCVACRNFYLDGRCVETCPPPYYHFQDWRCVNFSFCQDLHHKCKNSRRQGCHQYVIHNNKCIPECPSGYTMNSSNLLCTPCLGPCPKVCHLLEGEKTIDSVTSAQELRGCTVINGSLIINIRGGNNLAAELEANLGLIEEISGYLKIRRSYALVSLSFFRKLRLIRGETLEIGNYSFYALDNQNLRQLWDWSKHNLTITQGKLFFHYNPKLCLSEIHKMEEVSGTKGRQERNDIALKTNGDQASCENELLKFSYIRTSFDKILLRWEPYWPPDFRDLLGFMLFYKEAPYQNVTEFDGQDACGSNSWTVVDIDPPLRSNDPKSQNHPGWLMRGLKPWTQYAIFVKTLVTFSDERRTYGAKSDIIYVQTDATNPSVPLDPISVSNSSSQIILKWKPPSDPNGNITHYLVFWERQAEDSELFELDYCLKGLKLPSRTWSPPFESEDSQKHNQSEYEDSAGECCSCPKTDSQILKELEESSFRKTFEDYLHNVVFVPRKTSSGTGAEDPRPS

[2] = biological target: T2, insulin receptor β-subunit (Homo sapiens, UniProt P06213); test: Insulin receptor autophosphorylation (32P into 90 kDa band); assay type: biochemical
T2 construct: expressed in transfected cells
Description: After this preincubation, 2.5 μL of 1 mM ATP, 100 mM sodium orthovanadate and 5 μCi of [γ-^32P]ATP were added and incubated at room temperature for 25 minutes. The reaction was terminated by the addition of 1.5 μL of 0.5 M EDTA and 3.5 μL of 1.5 M NaCl. The solution was then either solubilised and resolved by SDS-PAGE or immunoprecipitated using anti-insulin Rβ (29B4) mouse monoclonal IgG or anti-phosphotyrosine (PY20) mouse monoclonal IgG (Santa Cruz Biotechnology Inc., USA), solubilised and then resolved by SDS-PAGE. Immunoprecipitation was performed by incubating one microgram of antibody with the reaction mixture over night at 4° C. […] The receptor-antibody-Sepharose complex was separated from the supernatant by centrifugation at 7,500 g for 5 minutes. The pellet was washed three times in TBS containing 0.1% Triton X-100 and 10 μL of 0.1 M glycine, pH 3.3 was added. The solution was then solubilised by incubation for 5 minutes at 100° C. in 10 μL of 80 mM Tris-HCl, pH 6.8 containing 0.45 M DTT, 56 mM EDTA, 30% sucrose and 6% SDS. Following centrifugation for 5 minutes at 7,500 g, the supernatant was resolved on a 7.5% SDS polyacrylamide gel. […] In some instances, gel bands corresponding to 90 kDa were excised and the associated radioactivity was measured by suspending the gel band in 2.5 mL of Scintillation fluid (Beckman) using a Beckman β-counter.

[3] = biological target: insulin receptor β-subunit associated tyrosine kinase activity (Homo sapiens, UniProt P06213); test: Protein tyrosine kinase (PTK) assay, 32P incorporation into FYF peptide; assay type: biochemical; conditions: for effect of compound alone on 32P incorporation into FYF peptide: basal, absence of insulin
Description: Protein tyrosine kinase activity was determined using a modification of the method of N. Konstantopoulos (22).
The reaction was allowed to proceed for 20 minutes at 30° C. before it was terminated by the addition of 12.5 μL of 7.5 M guanidine hydrochloride. An aliquot (10 μL) of the reaction mixture was then spotted onto a Whatman 81 phosphocellulose paper (15 mm×15 mm), washed three times (2 min per wash) in about 50 mL of 30% acetic acid, 0.05% orthophosphoric acid then finally, with one wash in about 200 mL of water. The papers were then rinsed briefly (15 sec) in 95% ethanol, dried, suspended in 2.5 mL of scintillation fluid (Beckman) and counted for radioactivity in a Beckman β-counter.

3T3L1 adipocyte cells = test: Glucose transport (3H-deoxyglucose uptake) in 3T3L1 adipocyte cells; assay type: cell-based, mouse; conditions: for effect of compound alone on glucose transport: basal, no insulin
Description: Glucose transport was determined using a modification of the method of S. J. Isakoff et at. (23). The assay involved measuring the effect of compounds on the uptake of ^3H-deoxyglucose into 3T3L1 adipocyte cells.
The cell line, 3T3-L1, derived from mouse embryo fibroblasts, was grown in 250 mL tissue culture flasks containing 15 mL medium made up of DMEM (Dulbecco's modified Eagle's medium containing glutamine, 2 mM; sodium bicarbonate, 30 mM; penicillin 71.5 mg/litre; streptomycin, 152.5 mg/litre) supplemented with 10% foetal calf serum (FCS), pH 7.4. Cells were maintained in a humidified incubator at 37° C. in a 5% CO2 environment. The medium was changed every 3 days and the cells were split when they were about 70-80% confluent.
3T3-L1 fibroblast cells from one tissue culture flask were suspended in 50 mL of DMEM media containing 10% FCS and 0.5 mL of this suspension were seeded into each well of two 48-well tissue culture plates. The differentiation of the cells was initiated when the fibroblast cells were fully confluent. Routinely, differentiation was induced on cells that had been growing in tissue culture plates for 4-5 days. […] The cells were subsequently maintained with DMEM medium containing 10% FCS.
One day prior to the glucose transport assay, cell medium was replaced with DMEM containing 10% charcoal-treated foetal calf serum (CTFCS). On the day of the assay, the medium was aspirated and each well was washed with 1 mL of 25 mM Hepes, pH 7.4 containing 0.9% NaCl (NaCl-HEPES). […] Ten microlitres of NaCl-HEPES containing 3 mM 2-deoxy-D-glucose and 0.1 μCi 2-deoxy-D-[1-^3H]glucose were then added. Following a 10 min incubation at 37° C., the medium was aspirated off and the wells rapidly washed three times with 1 mL of ice-cold 50 mM phosphate, pH 7.5 containing 150 mM NaCl (PBS) and 10 mM glucose. Two hundred microlitres of 3% Triton X-100 was then added to each well and left to incubate for a minimum of 10 minutes. One hundred microlitres of the solubilised cells was then added to 2.5 mL of liquid scintillation fluid and counted for radioactivity in a Beckman β-counter.

insulin receptor [4] = biological target: T1, insulin receptor; test: Assays of insulin action (several biological assays, classification agonist/antagonist)
Target sequence in this assay (P06213 with tags, fused parts or gaps): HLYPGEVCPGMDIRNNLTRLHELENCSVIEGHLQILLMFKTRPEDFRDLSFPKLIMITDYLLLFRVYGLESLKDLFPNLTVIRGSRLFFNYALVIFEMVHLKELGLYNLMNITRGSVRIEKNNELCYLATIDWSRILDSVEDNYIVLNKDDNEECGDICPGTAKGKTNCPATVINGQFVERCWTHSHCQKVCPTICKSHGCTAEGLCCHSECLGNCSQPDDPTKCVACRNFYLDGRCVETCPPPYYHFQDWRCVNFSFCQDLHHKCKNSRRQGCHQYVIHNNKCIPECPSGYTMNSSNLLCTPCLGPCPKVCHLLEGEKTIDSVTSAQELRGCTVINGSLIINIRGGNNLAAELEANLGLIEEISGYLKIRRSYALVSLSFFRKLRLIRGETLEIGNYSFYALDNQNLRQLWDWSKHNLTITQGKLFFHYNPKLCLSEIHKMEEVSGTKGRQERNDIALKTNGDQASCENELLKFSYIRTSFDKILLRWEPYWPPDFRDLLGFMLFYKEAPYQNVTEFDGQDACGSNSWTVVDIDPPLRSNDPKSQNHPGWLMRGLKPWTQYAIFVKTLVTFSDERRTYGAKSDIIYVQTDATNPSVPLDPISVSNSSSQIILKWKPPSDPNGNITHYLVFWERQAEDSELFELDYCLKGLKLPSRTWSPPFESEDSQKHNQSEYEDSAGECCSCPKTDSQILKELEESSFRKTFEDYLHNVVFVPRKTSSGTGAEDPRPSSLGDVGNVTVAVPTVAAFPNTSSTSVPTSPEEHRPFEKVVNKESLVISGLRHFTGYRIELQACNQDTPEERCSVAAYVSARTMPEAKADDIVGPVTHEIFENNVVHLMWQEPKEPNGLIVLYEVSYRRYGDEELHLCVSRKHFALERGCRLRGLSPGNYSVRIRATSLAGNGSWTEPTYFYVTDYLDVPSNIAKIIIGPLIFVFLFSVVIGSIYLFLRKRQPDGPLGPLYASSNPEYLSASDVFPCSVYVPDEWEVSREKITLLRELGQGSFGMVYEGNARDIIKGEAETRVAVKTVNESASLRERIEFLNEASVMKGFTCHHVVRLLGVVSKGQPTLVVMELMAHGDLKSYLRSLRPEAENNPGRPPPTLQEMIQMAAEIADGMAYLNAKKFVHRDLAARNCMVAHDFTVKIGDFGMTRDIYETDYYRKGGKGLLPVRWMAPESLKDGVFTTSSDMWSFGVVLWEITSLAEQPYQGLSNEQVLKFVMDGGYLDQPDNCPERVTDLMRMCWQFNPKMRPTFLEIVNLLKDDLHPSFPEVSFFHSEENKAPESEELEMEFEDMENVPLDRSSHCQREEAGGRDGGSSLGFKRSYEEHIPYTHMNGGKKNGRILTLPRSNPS

insulin receptor [5] = biological target: T1, insulin receptor; test: 125I insulin binding to wheat germ agglutinin purified insulin receptors (WGA.IR); parameters: host or cells: several: placental membranes, CHO.T11 cells, WGA purified receptors; conditions: LIGAND 1-site fit
Description: as §1
Target sequence in this assay (P06213 28-758 limits assumed): as the sequence (P06213 28-758 limits assumed) above

IGF-1 receptor [6] = biological target: T3, IGF-1 receptor (Homo sapiens, UniProt P08069); test: 125I IGF-1 binding to human placental plasma membranes (HPPM); parameters: from tissue; host or cells: human placenta, plasma membranes; conditions: HPPM
IGF-1 receptor [7] = test: as above; conditions: same source of receptors (HPPM)
IGF-1 receptors = biological target: T4, IGF-1 receptors (Cricetulus griseus, UniProt A0A8C2N2R2); test: 125I IGF-1 binding to WGA purified receptor preparations from CHO wild-type cells
T4 construct: have high endogenous populations of IGF-1 receptors; endogenous in cells; host or cells: CHO wild-type cells, solubilised, WGA purified

[8] = system: streptozotocin induced diabetic mice; test: Blood glucose levels in streptozotocin induced diabetic mice; assay type: in vivo, mouse
Description: Six week old male CD-1 mice were injected intra peritoneally with a sterile solution of streptozotocin prepared in 100 mM citrate buffer, pH 4.65 at a dose of 200 mg/kg and an injection volume of 16.7 mL/kg. Mice were housed in a 12 h light/dark cycle and fed a normal chow diet ad libitum. Drinking water was supplemented with 5% sucrose for the first two days following streptozotocin injection before being replaced with tap water thereafter. After 4 days, blood was taken from the saphenous vein of the mice using the method of Hem, A et al. (26). Random non-fasting blood glucose levels were determined on venous blood using an esprit glucometer (Bayer). Mice with blood glucose levels of greater than 15 mmol/L were characterised as diabetic.
Blood glucose levels of mice were determined, followed by an intra peritoneal dose of IM compound dissolved in diluent (1.6% glycerin, 0. 25% m-cresol, pH 6.75). Mice were then bled periodically and whole blood glucose levels were determine using a one-touch esprit glucometer (Bayer).

insulin receptor [9] = biological target: T1, insulin receptor; test: 125I insulin binding, insulin receptors from a number of sources; parameters: host or cells: several: placental membranes, CHO.T11 cells, WGA purified receptors
Description: as §1
Target sequence in this assay (P06213 28-758 limits assumed): as above

IGF-1 receptor [10] = biological target: T3, IGF-1 receptor; test: Phosphorylation of immunoprecipitated IGF-1 receptors; assay type: biochemical; conditions: immunoprecipitated IGF-1 receptors free of insulin receptors
NIH 3T3 HIR3.5 cells = conditions: read-out: half maximal insulin concentration for stimulation of 3H-deoxyglucose; cited from earlier work

T3 sequence (P08069 31-736 limits assumed): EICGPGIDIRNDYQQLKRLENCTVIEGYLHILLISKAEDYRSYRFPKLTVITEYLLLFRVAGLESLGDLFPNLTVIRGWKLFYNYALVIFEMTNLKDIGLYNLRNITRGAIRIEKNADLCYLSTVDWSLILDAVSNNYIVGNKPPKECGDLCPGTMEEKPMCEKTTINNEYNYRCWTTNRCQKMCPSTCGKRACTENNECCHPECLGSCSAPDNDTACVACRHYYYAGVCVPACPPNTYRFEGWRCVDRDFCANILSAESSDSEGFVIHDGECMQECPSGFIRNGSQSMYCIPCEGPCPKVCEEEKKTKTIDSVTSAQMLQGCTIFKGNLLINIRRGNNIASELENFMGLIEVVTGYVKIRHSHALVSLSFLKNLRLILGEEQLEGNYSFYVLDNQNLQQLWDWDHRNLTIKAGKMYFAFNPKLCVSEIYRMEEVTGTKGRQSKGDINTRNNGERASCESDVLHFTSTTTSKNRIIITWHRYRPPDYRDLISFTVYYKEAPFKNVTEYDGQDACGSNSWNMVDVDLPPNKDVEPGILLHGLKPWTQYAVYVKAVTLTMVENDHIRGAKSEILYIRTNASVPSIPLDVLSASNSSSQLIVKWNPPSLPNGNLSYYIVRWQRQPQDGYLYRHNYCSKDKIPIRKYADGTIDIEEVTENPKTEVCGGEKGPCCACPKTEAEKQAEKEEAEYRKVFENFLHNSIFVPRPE
Chain of insulin receptor β-subunit associated tyrosine kinase activity (P06213 28-758 limits assumed): as the sequence (P06213 28-758 limits assumed) above
T2 sequence (P06213 28-758): as the sequence (P06213 28-758 limits assumed) above
T2 sequence (P06213 763-1382): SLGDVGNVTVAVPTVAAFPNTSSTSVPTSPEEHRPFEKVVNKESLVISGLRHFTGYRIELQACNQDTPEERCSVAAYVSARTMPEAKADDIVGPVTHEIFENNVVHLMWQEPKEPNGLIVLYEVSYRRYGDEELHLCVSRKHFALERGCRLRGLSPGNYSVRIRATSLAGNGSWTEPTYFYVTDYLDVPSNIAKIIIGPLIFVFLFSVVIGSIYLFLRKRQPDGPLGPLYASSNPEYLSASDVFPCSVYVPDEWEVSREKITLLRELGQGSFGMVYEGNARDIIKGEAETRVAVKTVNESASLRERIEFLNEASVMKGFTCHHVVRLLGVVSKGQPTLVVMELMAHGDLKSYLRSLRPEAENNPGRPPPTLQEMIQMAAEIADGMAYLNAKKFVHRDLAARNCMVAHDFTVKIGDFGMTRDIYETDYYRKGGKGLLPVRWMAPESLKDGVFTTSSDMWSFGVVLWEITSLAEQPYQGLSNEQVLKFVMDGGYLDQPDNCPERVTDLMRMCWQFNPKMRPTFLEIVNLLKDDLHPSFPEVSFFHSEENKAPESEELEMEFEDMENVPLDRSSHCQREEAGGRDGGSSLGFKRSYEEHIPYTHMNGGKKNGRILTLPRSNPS
T4 sequence (A0A8C2N2R2 31-1371): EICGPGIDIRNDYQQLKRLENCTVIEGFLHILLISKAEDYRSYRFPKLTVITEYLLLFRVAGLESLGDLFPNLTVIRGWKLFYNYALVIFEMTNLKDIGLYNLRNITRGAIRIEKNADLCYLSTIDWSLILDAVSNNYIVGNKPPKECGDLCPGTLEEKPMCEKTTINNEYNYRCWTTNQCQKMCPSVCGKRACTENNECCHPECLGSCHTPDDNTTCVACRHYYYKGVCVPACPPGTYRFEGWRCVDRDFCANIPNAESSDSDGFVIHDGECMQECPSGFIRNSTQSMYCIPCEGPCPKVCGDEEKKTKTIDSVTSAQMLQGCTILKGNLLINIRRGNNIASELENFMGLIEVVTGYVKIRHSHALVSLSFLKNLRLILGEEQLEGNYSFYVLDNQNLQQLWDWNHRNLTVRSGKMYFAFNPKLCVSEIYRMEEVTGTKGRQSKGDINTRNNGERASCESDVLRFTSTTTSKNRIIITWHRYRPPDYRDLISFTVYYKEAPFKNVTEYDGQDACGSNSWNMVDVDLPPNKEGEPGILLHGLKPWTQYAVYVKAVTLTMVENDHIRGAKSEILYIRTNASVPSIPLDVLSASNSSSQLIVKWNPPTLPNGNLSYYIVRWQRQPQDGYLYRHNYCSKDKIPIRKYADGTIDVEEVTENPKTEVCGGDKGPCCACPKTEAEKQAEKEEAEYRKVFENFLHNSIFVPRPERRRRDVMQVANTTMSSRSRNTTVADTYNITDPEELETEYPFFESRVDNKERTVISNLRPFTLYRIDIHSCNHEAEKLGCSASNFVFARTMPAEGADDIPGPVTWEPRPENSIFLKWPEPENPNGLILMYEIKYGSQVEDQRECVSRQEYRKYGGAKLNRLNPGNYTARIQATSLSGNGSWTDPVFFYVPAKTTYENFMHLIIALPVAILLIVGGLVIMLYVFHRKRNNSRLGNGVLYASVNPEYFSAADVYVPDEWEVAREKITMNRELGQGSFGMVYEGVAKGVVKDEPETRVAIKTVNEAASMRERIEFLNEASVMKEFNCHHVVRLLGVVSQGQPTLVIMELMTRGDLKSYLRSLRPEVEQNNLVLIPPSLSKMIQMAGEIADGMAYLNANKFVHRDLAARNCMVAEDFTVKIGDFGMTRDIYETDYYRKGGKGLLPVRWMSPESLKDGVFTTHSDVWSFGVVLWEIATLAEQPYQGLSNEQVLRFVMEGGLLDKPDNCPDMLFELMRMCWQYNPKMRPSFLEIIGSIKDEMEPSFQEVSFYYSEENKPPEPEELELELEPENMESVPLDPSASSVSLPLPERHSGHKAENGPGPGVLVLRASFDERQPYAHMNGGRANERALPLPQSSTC

Molecule: 3,4-dihydro-7-[[6-(4-methoxyphenyl)hexenyl]oxy]-8-propyl-2H-1-benzopyran-2-carboxylic acid [IM 172]
- Ki (insulin receptor [1]; read-out: apparent Ki (inhibition constant), competition for 125I insulin binding): 218 µM
- effect on 32P incorporation into insulin receptor β-subunit ([2]; basal): does not increase ^32P incorporation into FYF peptide or the insulin receptor β-subunit
- effect of compound alone on 32P incorporation into FYF peptide [3]: does not increase ^32P incorporation into FYF peptide
- Ki ([3]; inhibition of insulin stimulation, read-out: estimated inhibition constant, PTK assay): 80 µM
- Ki (3T3L1 adipocyte cells; 3T3L1 cells, 2 nM insulin, read-out: estimated inhibition constant (Ki), glucose transport assay): 80 µM
- effect of compound alone on glucose transport (3T3L1 adipocyte cells): does not activate glucose transport in 3T3L1 cells
- classification of insulin action (insulin receptor [4]): antagonists of insulin action

Molecule: CCCc1c(OCCCOc2ccc(C(C)=O)c(OC)c2CCC)ccc2c1OC(C(=O)O)CC2 (stereo not shown) [IM 129, 7-[3-(4-acetyl-3-methoxy-2-propylphenoxy)propoxy]-3,4-dihydro-8-propyl-2H-1-benzopyran-2-carboxylic acid]
- Ki (insulin receptor [1]): 320 to 550 µM
- Ki (insulin receptor [5]): 189 µM
- classification of insulin action (insulin receptor [4]): antagonists of insulin action
- IC50 (insulin receptor [4]; PTK and glucose transport (FIGS. 8 and 9), read-out: apparent IC50 in several biological assays): 30 to 200 µM
- Ki (IGF-1 receptor [6]; read-out: apparent Ki, displacement of 125I IGF-1 binding): 800 to 1300 µM
- apparent Ki for 125I IGF-1 binding relative to Ki for 125I insulin binding (IGF-1 receptor [7]): approximately two fold higher

Molecule: CCc1cc(-c2ccc(F)cc2)c(O)cc1OCCCOc1ccc2c(=O)c3cc(C(=O)O)ccc3oc2c1CCC(=O)O [IM 140, 3-[4-[7-carboxy-9-oxo-3-[3-[2-ethyl-4-(4-fluorophenyl)-5-hydroxyphenoxy]propoxy]-9H-xanthene]]propanoic acid]
- effect on 125I IGF-1 binding (IGF-1 receptors): does not compete for ^125I IGF-1 binding
- effect of compound alone on 32P incorporation into FYF peptide [3]: promotes the ATP-dependent phosphorylation of endogenous FYF peptide in a dose dependent manner
- effect of compound alone on glucose transport (3T3L1 adipocyte cells): activates glucose transport in 3T3L1 cells
- efficacy compared with insulin, glucose transport (3T3L1 adipocyte cells; compound alone, relative to maximal dose of insulin (100 nM)): 25-40%
- EC50 (3T3L1 adipocyte cells; compound alone, read-out: apparent EC50, stimulation of glucose transport): 20 to 30 µM
- EC50 (3T3L1 adipocyte cells; read-out: apparent EC50, glucose transport with sub-maximal insulin, in presence of 2 nM insulin): 8 µM
- glucose transport, % of maximal efficacy (100 nM insulin) (3T3L1 adipocyte cells; with 2 nM insulin, compound at 15 μM): 80%
- classification of insulin action (insulin receptor [4]): agonists of insulin action
- effect on 125I IGF-1 binding (IGF-1 receptor [6]): does not compete for ^125I IGF-1 binding to HPPM; also recorded: promotes ^125I IGF-1 binding to HPPM
- EC50 in vivo [8]: 15 µmol/kg
- dose of peak activity, bi-phasic dose response in vivo [8]: 20 to 40 µmol/kg
- effect on blood glucose levels ([8]; 100 μmol/kg, preliminary studies): does not decrease blood glucose levels
- efficacy in lowering blood glucose relative to human insulin ([8]; dose of 35 μmol/kg, intra peritoneal): about 25%
- concentration of maximal 125I insulin binding (insulin receptor [9]): 80 to 100 µM
- EC50 (insulin receptor [9]; read-out: apparent EC50 of increase in 125I insulin binding, low micromolar concentrations): 10 to 20 µM

Molecule: Cc1ccc(C(=O)Nc2ccc(S(=O)(=O)O)c3cc(S(=O)(=O)O)cc(S(=O)(=O)O)c23)cc1NC(=O)c1cccc(NC(=O)Nc2cccc(C(=O)Nc3cc(C(=O)Nc4ccc(S(=O)(=O)O)c5cc(S(=O)(=O)O)cc(S(=O)(=O)O)c45)ccc3C)c2)c1 [IM 175, 8,8′-[Carbonylbis[imino-3,1-phenylenecarbonylimino(4-methyl-3,1-phenylene)carbonylimino]]bis-1,3,5-naphthalenetrisulfonic acid]
- Ki (insulin receptor [1]): 46 to 48 µM
- autophosphorylation of insulin receptor β-subunits, efficacy relative to insulin ([2]; relative to 100 nM dose of insulin, immunoprecipitated insulin receptors): about 65%
- EC50 (3T3L1 adipocyte cells; Mus musculus, 3T3-L1, compound alone, read-out: apparent EC50, stimulation of glucose transport): ~250 µM
- effect of compound alone on glucose transport (3T3L1 adipocyte cells): levels approaching maximal stimulation by insulin
- classification of insulin action (insulin receptor [4]): agonists of insulin action
- Ki (IGF-1 receptor [6]; read-out: Ki, competition for 125I IGF-1 binding): 9 µM
- effect on IGF-1 receptor phosphorylation (IGF-1 receptor [10]): can also stimulate the IGF-1 receptor
- effect on IGF-1 receptor phosphorylation (IGF-1 receptor [10]; listed as IM175): lower potency on IGF-1 receptors than it does on insulin receptors

Molecule: insulin: peptidyl ligand; the most important regulatory hormone involved in maintaining glucose homeostasis
- EC50 (NIH 3T3 HIR3.5 cells): 0.0001 µM
